Assay [1] addresses Recombinant human c-Cbl (aa 47-435) (Homo sapiens (Human), UniProt P22681). The assay can be described thus: c-Cbl Biochemical Assay (TR-FRET). As for the experimental part:
Recombinant human c-Cbl (aa 47-435) was expressed in E. coli, purified and biotinylated in vitro. The protein was diluted to 12 nM in freshly prepared assay buffer consisting of 50 mM HEPES, pH 7.0, 100 mM NaCl, 5 mM MgCl2, 0.01% Triton-X 100, 0.01% BSA and 1 mM DTT. Recombinant human Src (aa 254-536)-[…]-Zap-70 (aa 281-297) fusion protein was expressed in E. coli and purified. Protein was diluted in assay buffer to 5-20 nM and ATP was added to 1 mM. Recombinant human UBE2D2([…]) was expressed in E. coli, purified and ubiquitinated and Bodipy labelled in vitro. Protein was diluted to 200 nM in assay buffer without MgCl2 (or Cisbio PPI buffer). Streptavidin-Terbium was added to 2 nM and EDTA to 10 mM, to provide a binding assay mix. Compounds were dissolved in DMSO and diluted to prepare a ten-point half log dilution series. 100 nl of each compound concentration was dispensed in duplicate in a 384 well black assay plate using acoustic dispensing. Wells for maximum signal controls received 100 nl of DMSO only and wells for minimum controls received 100 nl of a reference inhibitor compound at a final assay concentration of […] to produce 100% inhibition. 5 μl of diluted c-cbl enzyme was added to all wells of the assay plate and incubated at RT for 30 min. The enzyme assay was initiated by addition of 5 μl of Src-Zap/ATP mix to all wells, and the plate incubated at RT for 60-90 min. The enzyme reaction was terminated and the binding reaction was initiated by adding 10 μl of binding assay mix to all wells and incubating the plate at RT for 60 min prior to assay read. Final assay conditions consisted of 6 nM c-cbl, 2.5-10 nM Src-Zap70, 0.5 mM ATP, 1% (v/v) DMSO (enzyme reaction) and 100 nM UBE2D2([…])-Ub-FL-BODIPY, 5 mM EDTA, 1 nM Streptavidin-Tb (binding reaction). The HTRF assay signal was measured at 520 nm on an Envision plate reader, with reference signal at 485 or 620 nm. Data was normalized using maximum and minimum assay controls: % Inhibition=100-(100*((maximum control)-unknown)/(maximum control-minimum control)). A 4-parameter dose-response equation was used to fit the normalized dose-response data and derive an IC50 for test compounds.
Background: In TR-FRET formats the signal depends on donor and acceptor labels being close together.

For assay [2], the target named is Recombinant human Cbl-b (aa 36-427) (Homo sapiens (Human), UniProt Q13191). The assay can be described thus: Cbl-b Biochemical Assay (TR-FRET). The settings on record: read-out: TR-FRET hCbl-b IC50. In a few lines:
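Two-step TR-FRET: 6 nM biotinylated Cbl-b preincubated 30-60 min with compound, then 60 min at RT with 1-2.5 nM Src-Zap70 and 0.5 mM ATP in HEPES pH 7.0 buffer, 1% DMSO. Stopped with 5 mM EDTA plus 100 nM UBE2D2-Ub-FL-BODIPY and 1 nM streptavidin-Tb, 60 min; 520 nm signal; IC50 from 4-parameter fit.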

Data on 19 compounds can be found in patent US12325697B2 (Nimbus Clio, Inc., priority 2021, dated 2025).

One may read the IC50 as the concentration that inhibits the measured activity by half.

Recombinant human c-Cbl (aa 47-435), sequence (P22681 47-435): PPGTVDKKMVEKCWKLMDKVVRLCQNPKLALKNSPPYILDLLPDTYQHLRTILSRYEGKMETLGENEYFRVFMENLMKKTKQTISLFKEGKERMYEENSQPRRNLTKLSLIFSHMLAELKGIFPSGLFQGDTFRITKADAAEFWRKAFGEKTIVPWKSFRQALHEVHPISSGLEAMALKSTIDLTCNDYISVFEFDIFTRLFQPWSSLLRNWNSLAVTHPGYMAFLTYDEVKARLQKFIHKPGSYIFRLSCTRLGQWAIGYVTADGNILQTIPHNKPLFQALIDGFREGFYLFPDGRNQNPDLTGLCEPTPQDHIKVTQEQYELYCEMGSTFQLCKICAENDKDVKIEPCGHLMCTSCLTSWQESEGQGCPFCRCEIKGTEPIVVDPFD
Recombinant human Cbl-b (aa 36-427), sequence (Q13191 36-427): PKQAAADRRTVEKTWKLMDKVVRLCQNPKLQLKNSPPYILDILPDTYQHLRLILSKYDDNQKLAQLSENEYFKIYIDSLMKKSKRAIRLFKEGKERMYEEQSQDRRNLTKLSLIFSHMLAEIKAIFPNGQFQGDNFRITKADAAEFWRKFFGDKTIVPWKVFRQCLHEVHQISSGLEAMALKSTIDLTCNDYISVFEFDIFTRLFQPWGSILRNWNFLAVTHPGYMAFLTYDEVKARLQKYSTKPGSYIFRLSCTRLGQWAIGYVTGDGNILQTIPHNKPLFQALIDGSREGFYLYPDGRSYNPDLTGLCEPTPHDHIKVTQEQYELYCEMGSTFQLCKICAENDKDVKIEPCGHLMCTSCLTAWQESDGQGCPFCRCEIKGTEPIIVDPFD

With `Cn1cnnc1-c1cc(C#N)ccc1-c1cc(C2CC2)nc(N2Cc3c(F)cc(CN4CC[C@H]5COC[C@@H]54)cc3C2=O)c1` (stereo in doubt) [AOT-2, 4-(2-Cyclopropyl-6-(4-fluoro-6-((hexahydro-1H-furo[3,4-b]pyrrol-1-yl)methyl)-1-oxoisoindolin-2-yl)pyridin-4-yl)-3-(4-methyl-4H-1,2,4-triazol-3-yl)benzonitrile], the IC50 in assay [1] and in assay [2] was no more than 200 nM each time.

Take `CCNc1cnc(N2Cc3c(cc(CO)cc3C(F)(F)F)C2=O)cc1-c1ccc(F)cc1-c1nncn1C` [AHN-9, 2-(5-(Ethylamino)-4-(4-fluoro-2-(4-methyl-4H-1,2,4-triazol-3-yl)phenyl)pyridin-2-yl)-6-(hydroxymethyl)-4-(trifluoromethyl)isoindolin-1-one]: the IC50 in assay [1] and in assay [2] was 10000 to 50000 nM each time.

In the case of `CN1CCC[C@@H]1COCc1cc2c(c(C(F)(F)F)c1)CN(c1cc(-c3ccc(F)cc3-c3nncn3C)cc(C3CC3)n1)C2=O` [AHO-4, 2-{6-Cyclopropyl-4-[4-fluoro-2-(4-methyl-1,2,4-triazol-3-yl)phenyl]pyridin-2-yl}-6-({[(2R)-1-methylpyrrolidin-2-yl]methoxy}methyl)-4-(trifluoromethyl)-3H-isoindol-1-one], the IC50 in assay [1] and in assay [2] was no more than 200 nM in each case.

Turning to `Cn1cnnc1-c1cc(C#N)ccc1-c1cc(C2CC2)nc(N2Cc3c(cc(COCC4(O)CCC4)cc3C(F)(F)F)C2=O)c1` [AHP-1, 4-(2-Cyclopropyl-6-(6-(((1-hydroxycyclobutyl)methoxy)methyl)-1-oxo-4-(trifluoromethyl)isoindolin-2-yl)pyridin-4-yl)-3-(4-methyl-4H-1,2,4-triazol-3-yl)benzonitrile], the half-inhibitory concentration (IC50) in assay [1] and in assay [2] was no more than 200 nM in each case.

On to `CCOc1cc(-c2ccc(F)cc2-c2nncn2C)cc(N2Cc3c(cc(COCCO)cc3C(F)(F)F)C2=O)n1` [AHQ-4, 2-(6-Ethoxy-4-(4-fluoro-2-(4-methyl-4H-1,2,4-triazol-3-yl)phenyl)pyridin-2-yl)-6-((2-hydroxyethoxy)methyl)-4-(trifluoromethyl)isoindolin-1-one], for which the IC50 in assay [1] and in assay [2] was no more than 200 nM in each case.

For `CN1CCC[C@H]1COCc1cc2c(c(C(F)(F)F)c1)CN(c1cc(-c3ccc(F)cc3-c3nncn3C)cc(C3CC3)n1)C2=O` [AHR-4, (S)-2-(6-Cyclopropyl-4-(4-fluoro-2-(4-methyl-4H-1,2,4-triazol-3-yl)phenyl)pyridin-2-yl)-6-(((1-methylpyrrolidin-2-yl)methoxy)methyl)-4-(trifluoromethyl)isoindolin-1-one], the IC50 in assay [1] and in assay [2] was no more than 200 nM throughout.

As to `CCOc1cc(-c2ccc(C#N)cc2-c2nncn2C)cc(N2Cc3ccc(CNCCOC)cc3C2=O)n1` [AHS-2, 4-(2-Ethoxy-6-(6-(((2-methoxyethyl)amino)methyl)-1-oxoisoindolin-2-yl)pyridin-4-yl)-3-(4-methyl-4H-1,2,4-triazol-3-yl)benzonitrile], the IC50 in assay [1] and in assay [2] was no more than 200 nM in each case.

In the case of `CCOc1cc(-c2ccc(Cl)cc2-c2nncn2C)cc(N2Cc3ccc(CNCC4(O)CCC4)cc3C2=O)n1` [AHT-2, 2-(4-(4-Chloro-2-(4-methyl-4H-1,2,4-triazol-3-yl)phenyl)-6-ethoxypyridin-2-yl)-6-((((1-hydroxycyclobutyl)methyl)amino)methyl)isoindolin-1-one], the IC50 in assay [1] and in assay [2] was no more than 200 nM throughout.

Regarding `C#CCOc1ccc(-c2cc(NCC)nc(N3Cc4c(cccc4C(F)(F)F)C3=O)c2)c(-c2nncn2C)c1` [AHU-12, 2-[6-(Ethylamino)-4-[2-(4-methyl-1,2,4-triazol-3-yl)-4-(prop-2-yn-1-yloxy)phenyl]pyridin-2-yl]-4-(trifluoromethyl)-3H-isoindol-1-one], the concentration for half-maximal inhibition (IC50) is 200 to 1000 nM in assay [1] and no more than 200 nM in assay [2].

As for `Cn1cnnc1-c1cc(C#N)ccc1-c1cc(C2CC2)nc(N2Cc3ccc(CO)cc3C2=O)c1` [AHV-1, 4-{2-Cyclopropyl-6-[6-(hydroxymethyl)-1-oxo-3H-isoindol-2-yl]pyridin-4-yl}-3-(4-methyl-1,2,4-triazol-3-yl)benzonitrile], the IC50 in assay [1] and in assay [2] was no more than 200 nM throughout.

On to `CCOc1cc(-c2ccc(Cl)cc2-c2nncn2C)cc(N2Cc3c(cc(CNCC4(O)CCC4)cc3C(F)(F)F)C2=O)n1` [AHW-1, 2-{4-[4-Chloro-2-(4-methyl-1,2,4-triazol-3-yl)phenyl]-6-ethoxypyridin-2-yl}-6-({[(1-hydroxycyclobutyl)methyl]amino}methyl)-4-(trifluoromethyl)-3H-isoindol-1-one], for which the IC50 in assay [1] and in assay [2] was no more than 200 nM in each case.

Take `Cn1cnnc1-c1cc(F)ccc1-c1cc(C2CC2)nc(N2Cc3c(cc(COCCO)cc3C(F)(F)F)C2=O)c1` [AHX-2, 2-(6-Cyclopropyl-4-(4-fluoro-2-(4-methyl-4H-1,2,4-triazol-3-yl)phenyl)pyridin-2-yl)-6-((2-hydroxyethoxy)methyl)-4-(trifluoromethyl)isoindolin-1-one]: the IC50 in assay [1] and in assay [2] was no more than 200 nM each time.

With `Cn1cnnc1-c1ccccc1-c1cc(N2Cc3c(cccc3C(F)(F)F)C2=O)cc2cc[nH]c12` [AHY-5, 2-{7-[2-(4-Methyl-1,2,4-triazol-3-yl)phenyl]-1H-indol-5-yl}-4-(trifluoromethyl)-3H-isoindol-1-one], the IC50 in assay [1] and in assay [2] was 10000 to 50000 nM each time.

With `Cn1cnnc1-c1cc(C#N)ccc1-c1cc(C2CC2)nc(N2Cc3ccc(CNCC4COC4)cc3C2=O)c1` [AHZ-2, 4-[2-Cyclopropyl-6-(6-{1[(oxetan-3-ylmethyl)amino]methyl}-1-oxo-3H-isoindol-2-yl)pyridin-4-yl]-3-(4-methyl-1,2,4-triazol-3-yl)benzonitrile], the IC50 in assay [1] and in assay [2] was no more than 200 nM each time.

On to `Cn1cnnc1-c1cc(C#N)ccc1-c1cc(C2CC2)nc(N2Cc3ccc(CNCC4CCC4)cc3C2=O)c1` [AIA-2, 4-[2-(6-{[(Cyclobutylmethyl)amino]methyl}-1-oxo-3H-isoindol-2-yl)-6-cyclopropylpyridin-4-yl]-3-(4-methyl-1,2,4-triazol-3-yl)benzonitrile], for which the IC50 in assay [1] and in assay [2] was no more than 200 nM in each case.

Turning to `Cn1cnnc1-c1cc(C#N)ccc1-c1cc(C2CC2)nc(N2Cc3ccc(CNCC4CC4)cc3C2=O)c1` [AIB-2, 4-(2-Cyclopropyl-6-(6-(((cyclopropylmethyl)amino)methyl)-1-oxoisoindolin-2-yl)pyridin-4-yl)-3-(4-methyl-4H-1,2,4-triazol-3-yl)benzonitrile], the IC50 in assay [1] and in assay [2] was no more than 200 nM throughout.

Regarding `COc1cc(COCC2(O)CCC2)cc2c1CN(c1cc(-c3ccc(F)cc3-c3nncn3C)cc(C3CC3)n1)C2=O` [AIC-11, 2-{6-Cyclopropyl-4-[4-fluoro-2-(4-methyl-1,2,4-triazol-3-yl)phenyl]pyridin-2-yl}-6-{[(1-hydroxycyclobutyl)methoxy]methyl}-4-methoxy-3H-isoindol-1-one], the IC50 in assay [1] and in assay [2] was no more than 200 nM throughout.

As to `CO[C@H](C)CNCc1ccc2c(c1)C(=O)N(c1cc(-c3ccc(C#N)cc3-c3nncn3C)cc(C3CC3)n1)C2` [AID-2, 4-{2-Cyclopropyl-6-[6-({[(2R)-2-methoxypropyl]amino}methyl)-1-oxo-3H-isoindol-2-yl]pyridin-4-yl}-3-(4-methyl-1,2,4-triazol-3-yl)benzonitrile], the IC50 in assay [1] and in assay [2] was no more than 200 nM in each case.

As to `Cn1cnnc1-c1cc(C#N)ccc1-c1cc(C2CC2)nc(N2Cc3ccc(CNCC(C)(C)O)cc3C2=O)c1` [AIE-1, 4-[2-Cyclopropyl-6-(6-{[(2-hydroxy-2-methylpropyl)amino]methyl}-1-oxo-3H-isoindol-2-yl)pyridin-4-yl]-3-(4-methyl-1,2,4-triazol-3-yl)benzonitrile], the IC50 in assay [1] and in assay [2] was no more than 200 nM in each case.
